This is an account of results in paper PMC3723632, “A Multi-targeted Drug Candidate with Dual Anti-HIV and Anti-HSV Activity” (PLoS Pathogens, 2013).

One assay has as its target T1, HSV DNA polymerase (Human herpesvirus 1, UniProt P04293).
T1 construct: gift of M.W. Wathen (Pfizer, Kalamazoo, MI)
Nature of the assay: HSV DNA polymerase assay. It is filed as biochemical. The protocol: (§1) The reaction mixture (40 µl) for the HSV-1 DNA polymerase and HIV-1 RT assays contained 4 µl of Premix (200 mM Tris.HCl, pH 7.5; 2 mM DTT; 30 mM MgCl2), 4 µl of BSA (5 mg/ml), 1.6 µl of activated calf thymus DNA (1.25 mg/ml), 0.8 µl of dCTP (5 mM), 0.8 µl of dTTP (5 mM), 0.8 µl of dGTP (5 mM), 2 µl of radiolabeled [^3H]dATP (1 mCi/ml) (3.2 µM), 18 µl of H2O, and 4 µl of adefovir-pp or PMEO-DAPym-pp at different concentrations (i.e., 200, 20, 2, and 0.2 µM). In the HSV DNA polymerase assays, the inhibitory effect of adefovir-pp or PMEA-DAPym-pp on herpesvirus DNA polymerase-catalyzed polymerization was also determined in the presence of radiolabeled [^3H]dGTP (1 mCi/ml; 2.8 µM), [^3H]dTTP (1 mCi/ml; 1 µM), or [^3H]dCTP (1 mCi/ml; 2.5 µM) as competing dNTP in the presence of 0.8 µl (5 mM) of the other dNTPs in the reaction mixture as described above. The reaction was started by the addition of 4 µl of recombinant HSV-1 DNA polymerase (kindly provided by M.W. Wathen, at that time at Pfizer, Kalamazoo, MI) or 4 µl of recombinant HIV-1 RT (in 20 mM Tris.HCl, pH 8.0; 1 mM DTT; 0.1 mM EDTA; 0.2 M NaCl; 40% glycerol), and the reaction mixture was incubated for 60 min (HSV-1 DNA polymerase) or 30 min (HIV-1 RT) at 37°C. Then, 1 ml of ice-cold 5% TCA in 0.02 M Na4P2O7.10 H2O was added to terminate the polymerisation reaction, after which the acid-insoluble precipitate (radiolabeled DNA) was captured onto Whatman glass fiber filters (type GF/C; GE Healthcare UK Limited, Buckinghamshire, UK) and further washed with 5% TCA and ethanol to remove free radiolabeled dNTP. Radioactivity was determined in a Perkin Elmer Tri-Carb 2810 TR liquid scintillation counter.

Another assay concerns the target T2, HIV-1 RT (Human immunodeficiency virus type 1 group M subtype B, UniProt P03366).
T2 construct: 4 µl of recombinant HIV-1 RT
Nature of the assay: HIV-1 reverse transcriptase assay. The assay is classed as biochemical. The following applies: poly rU.dA primer/template. The protocol:
as §1, with “The reaction mixture (40 µl) for the HSV-1 DNA polymerase and HIV-1 RT assays contained 4 µl of Premix (200 mM Tris.HCl, pH 7.5; 2 mM DTT; 30 mM MgCl2), 4 µl of BSA (5 mg/ml), 1.6 µl of activated calf thymus DNA (1.25 mg/ml), 0.8 µl of dCTP (5 mM), 0.8 µl of dTTP (5 mM), 0.8 µl of dGTP (5 mM), 2 µl of radiolabeled [^3H]dATP (1 mCi/ml) (3.2 µM), 18 µl of H2O, and 4 µl of adefovir-pp or PMEO-DAPym-pp at different concentrations (i.e., 200, 20, 2, and 0.2 µM).” left out

Structures are written as SMILES. Read-outs that look alike come from different tables or passages of the source.

T1 sequence (P04293 whole entry): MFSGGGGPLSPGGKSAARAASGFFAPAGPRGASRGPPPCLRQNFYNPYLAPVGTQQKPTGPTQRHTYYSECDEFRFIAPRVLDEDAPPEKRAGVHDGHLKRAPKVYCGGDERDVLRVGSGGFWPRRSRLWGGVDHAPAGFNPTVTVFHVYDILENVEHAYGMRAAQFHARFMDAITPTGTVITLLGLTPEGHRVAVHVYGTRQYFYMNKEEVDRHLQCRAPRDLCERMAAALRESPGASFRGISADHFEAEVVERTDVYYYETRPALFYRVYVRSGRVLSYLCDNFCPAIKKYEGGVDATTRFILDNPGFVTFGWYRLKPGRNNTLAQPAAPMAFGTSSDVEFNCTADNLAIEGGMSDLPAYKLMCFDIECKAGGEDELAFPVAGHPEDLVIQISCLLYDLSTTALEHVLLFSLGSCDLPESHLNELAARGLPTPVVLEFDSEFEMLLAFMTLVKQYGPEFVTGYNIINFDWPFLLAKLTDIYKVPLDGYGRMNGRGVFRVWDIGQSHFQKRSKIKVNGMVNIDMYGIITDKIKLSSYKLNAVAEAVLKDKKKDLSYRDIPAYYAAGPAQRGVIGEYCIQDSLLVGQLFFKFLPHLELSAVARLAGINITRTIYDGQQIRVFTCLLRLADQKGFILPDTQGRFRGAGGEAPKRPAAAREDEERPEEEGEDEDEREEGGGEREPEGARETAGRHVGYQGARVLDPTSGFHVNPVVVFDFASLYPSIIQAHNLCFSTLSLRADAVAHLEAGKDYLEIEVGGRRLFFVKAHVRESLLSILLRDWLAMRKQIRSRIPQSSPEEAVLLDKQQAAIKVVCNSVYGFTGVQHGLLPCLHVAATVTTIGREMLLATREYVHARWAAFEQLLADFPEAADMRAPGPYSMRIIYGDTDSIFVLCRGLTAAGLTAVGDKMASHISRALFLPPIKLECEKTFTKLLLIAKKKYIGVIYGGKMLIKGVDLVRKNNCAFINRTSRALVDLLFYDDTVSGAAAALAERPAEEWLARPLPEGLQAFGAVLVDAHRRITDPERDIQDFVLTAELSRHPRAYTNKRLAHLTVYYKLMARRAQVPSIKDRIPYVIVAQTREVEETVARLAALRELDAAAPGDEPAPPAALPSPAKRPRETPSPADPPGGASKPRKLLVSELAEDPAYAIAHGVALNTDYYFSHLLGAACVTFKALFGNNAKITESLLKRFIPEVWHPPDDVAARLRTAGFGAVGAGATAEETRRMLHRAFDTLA

Consider `Nc1ncnc2c1ncn2CCOCP(=O)(O)OP(=O)(O)OP(=O)(O)O` [Adefovir-pp], for which the IC50 is 0.993 µM on HSV DNA polymerase ([3H]dATP as competing substrate, gapped calf thymus DNA, read-out: IC50 (converted)); 3.92 µM on HSV DNA polymerase ([3H]dCTP as competing substrate, gapped calf thymus DNA, read-out: IC50 (converted)); 3.46 µM on HSV DNA polymerase ([3H]dGTP as competing substrate, gapped calf thymus DNA, read-out: IC50 (converted)); 4.85 µM at HSV DNA polymerase ([3H]dTTP as competing substrate, gapped calf thymus DNA, read-out: IC50 (converted)); 3.46 to 4.85 µM at HSV DNA polymerase (dCTP, dGTP, dTTP, range, read-out: IC50, incorporation of other [3H]dNTPs); 0.923 µM at HIV-1 RT (IC50, dATP (3.2 µM) as competing substrate).

With `C[C@@H](Cn1cnc2c(N)ncnc21)OCP(=O)(O)OP(=O)(O)OP(=O)(O)O` [Tenofovir-pp], the IC50 was determined as 0.48 ± 0.04 µg/mL on HSV DNA polymerase ([3H]dATP as competing substrate, gapped calf thymus DNA); 32 ± 2.2 µg/mL on HSV DNA polymerase ([3H]dCTP as competing substrate, gapped calf thymus DNA); 8.9 ± 6.3 µg/mL on HSV DNA polymerase ([3H]dGTP as competing substrate, gapped calf thymus DNA); 11 ± 4.8 µg/mL at HSV DNA polymerase ([3H]dTTP as competing substrate, gapped calf thymus DNA); 0.43 ± 0.21 µg/mL at HIV-1 RT (dATP (3.2 µM) as competing substrate). In addition, the “IC50, incorporation of other [3H]dNTPs” value at HSV DNA polymerase (dCTP, dGTP, dTTP, range) is 8.9 to 32 µg/mL.
